# Source: patent US20020054880A1, “Anti-inflammatory, tolerogenic and immunoinhibiting properties of carbohydrate binding-peptides” (priority 1992, published 2002)
# pIC50: −log10 of the molar value.
# Assays:
# [1] = biological target: T1, ACS2P1-biotin binding to fetuin (Bos taurus, UniProt P12763); assay: biochemical; conditions: for Percent Change in Binding Activity Fetuin: peptide μM: ACS2P1 4.1, S2P2 42.5, SPYGRC 5520, S2P3 22.4, S2P4 6.0, S2P6 319, S3P1 1142, S3P2 934, S3P3 16.1, S3P4 6.4, S3P5 22.5, ACS2P1-biotin 0.1 μg, − inhibition, + enhancement
# T1 construct: purchased Sigma Chemical Company
# T1 sequence (P12763 19-359): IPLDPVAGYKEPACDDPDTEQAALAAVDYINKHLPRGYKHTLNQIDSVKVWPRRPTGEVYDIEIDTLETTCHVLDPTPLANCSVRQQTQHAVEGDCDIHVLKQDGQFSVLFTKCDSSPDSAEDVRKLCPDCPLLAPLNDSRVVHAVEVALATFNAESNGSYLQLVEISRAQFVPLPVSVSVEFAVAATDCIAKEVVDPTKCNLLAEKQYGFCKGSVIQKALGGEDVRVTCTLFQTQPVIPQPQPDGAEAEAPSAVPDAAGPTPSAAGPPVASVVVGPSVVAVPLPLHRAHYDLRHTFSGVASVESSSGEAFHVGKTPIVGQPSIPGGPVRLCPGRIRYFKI
# [2] = biological target: T2, PT-biotin binding to asialofetuin (Bos taurus, UniProt P12763); assay: PT-biotin binding to asialofetuin, binding inhibition assay; design: species or system Bordetella pertussis; conditions: peptide mg/mL: S2PL 1.2, ACS2P1 1.0, S2P2 1.1, S2P3 0.51, S2P4 0.98, S2P6 0.85, S3P1 3.2, S3P2 3.1, S3P3 4.5, S3P4 3.3, S3P5 0.48, SPYGRC 4.4; + enhancement, − inhibition
# T2 construct: made in house
# T2 sequence (P12763 19-359): T1 sequence (P12763 19-359)
# Experimental: (§1) Peptides ranging in concentration from 0.5 to 4.5 mg/ml in PBS (40 μl) were added to each well and PT-biotin (10 μl containing 10 ng in PBS) was then added to the microtiter wells. […] Horseradish peroxidase-conjugated avidin (100 μl, 1/3000 dilution in PBST to a concentration of 0.3 μg/ml) was then added to the wells, and the plates were incubated at ambient temperature for 1 hour. […] Color development was recorded at 405 nm using a Titertek Multiskan MC plate reader. […] Binding assays for each peptide were done in duplicate. Binding inhibition experiments utilizing SNA-, WGA-, and MAL-biotin were performed as described above using 10 ng of each biotinylated lectin in PBS.
# (§2) Binding assays for each inhibitor concentration were done at least in duplicate, and the average value varied less than 15%.
# [3] = biological target: T3, WGA-biotin binding to fetuin (Bos taurus, UniProt P12763); assay: biochemical; conditions: peptide mg/mL: S2PL 1.2, ACS2P1 1.0, S2(14-2.3) 1.0, S2P2 1.1, S2P3 0.51, S2P4 0.98, S2P6 0.85, S3P1 3.2, S3P2 3.1, S3P3 4.5, S3P4 3.3, S3P5 0.48, SPYGRC 4.4, S2(WGA) 1.0, WGA (62-73) 1.0; + enhancement, − inhibition
# T3 sequence (P12763 19-359): T1 sequence (P12763 19-359)
# Experimental: (§3) The solution was removed by aspiration and replaced with 100 μl of 1% BSA in PBS containing 0.05% Tween 20 (PBST). After incubation for 2-4 hours at room temperature, the microtiter wells were washed four times with 300 μl of PBST. Peptides ranging in concentration from 0.5 to 4.5 mg/ml in PBS (40 μl) were added to each well and PT-biotin (10 μl containing 10 ng in PBS) was then added to the microtiter wells. After incubating for 1 hour, the binding reaction was stopped by aspirating the solutions and the plate was washed with PBST (300 μl). Horseradish peroxidase-conjugated avidin (100 μl, 1/3000 dilution in PBST to a concentration of 0.3 μg/ml) was then added to the wells, and the plates were incubated at ambient temperature for 1 hour. After washing the wells as described above, the substrate solution [1 mM ABTS in 5 mM citrate buffer, pH 4.2, containing 0.1% hydrogen peroxide, v/v) was added and the plates were incubated for 30 minutes. Color development was recorded at 405 nm using a Titertek Multiskan MC plate reader. Maximum binding was determined in the absence of peptide, and background binding was measured in wells coated with BSA only. Binding assays for each peptide were done in duplicate. Binding inhibition experiments utilizing SNA-, WGA-, and MAL-biotin were performed as described above using 10 ng of each biotinylated lectin in PBS.
# [4] = biological target: T4, SNA-biotin binding to fetuin (Bos taurus, UniProt P12763); assay: biochemical; conditions: peptide mg/mL: S2PL 1.2, ACS2P1 1.0, S2(14-2.3) 1.0, S2P2 1.1, S2P3 0.51, S2P4 0.98, S2P6 0.85, S3P1 3.2, S3P2 3.1, S3P3 4.5, S3P4 3.3, S3P5 0.48, S3P9a 1.7, SPYGRC 4.4, S2(WGA) 1.0, WGA (62-73) 1.0; + enhancement, − inhibition
# T4 sequence (P12763 19-359): T1 sequence (P12763 19-359)
# Experimental: as §3
# [5] = biological target: T5, PT-biotin binding to fetuin (Bos taurus, UniProt P12763); assay: PT-biotin binding to fetuin, binding inhibition assay; design: species or system Bordetella pertussis; conditions: for Percent Changes in Binding Activity PT/fetuin: peptide mg/mL: S2PL 1.2, ACS2P1 1.0, S2(14-2.3) 1.0, S2P2 1.1, S2P3 0.51, S2P4 0.98, S2P6 0.85, S3P1 3.2, S3P2 3.1, S3P3 4.5, S3P4 3.3, S3P5 0.48, S3P9a 1.7, SPYGRC 4.4, S2(WGA) 1.0, WGA (62-73) 1.0, + enhancement, − inhibition
# T5 construct: purchased Sigma Chemical Company (fetuin); Connaught Center for Biotechnology Research (PT)
# T5 sequence (P12763 19-359): T1 sequence (P12763 19-359)
# Experimental: as §1, §2
# [6] = system: pertussis toxin binding to Chinese Hamster ovary (CHO) cell; assay: CHO cell neutralization of pertussis toxin (cell clumping); type: cell-based; conditions: PT 2.4 ng/ml, peptide and PT 1 hour, triplicate
# Experimental: Confluent monolayers of CHO cells were lifted from plastic tissue culture flasks with 0.25% trypsin and suspended at a concentration of 5×10^4 cells/ml in Ham's F12 media containing 10% fetal bovine serum (FBS). 100 μl of the cell suspension was added to 96 well tissue culture plates and were allowed to establish contact with the plastic for 24 to 48 hours. The expended media was then removed and filtered-sterilized peptide 5-fold dilutions ranging in concentration from 300 to 30 femptogram per ml (80 μl) in Ham' F12 media containing FBS were added to the CHO cells. […] The incubation mixtures were gently mixed and incubated at 37° C. for 1 hour in a CO2 incubator. The incubation mixtures were then removed and replaced with fresh media. The tissue culture plates were then incubated for 24 hours at 37° C., fixed with 100% methanol, and stained with Geimsa stain. Control experiments were done in the absence of peptide alone or in the absence of PT. All determinations were done in triplicate. […] The results reported in Table VIII show the maximum peptide concentration required to cause a 50% reduction in CHO cell clumping.
# [7] = biological target: T6, ACS2P1-biotin binding to asialofetuin (Bos taurus, UniProt P12763); assay: Screening of S2 and S3 peptides for inhibition of ACS2P1-biotin binding to asialofetuin; conditions: for Percent Change in Binding Activity Asialofetuin: peptide μM: ACS2P1 4.1, S2P2 42.5, SPYGRC 5520, S2P3 22.4, S2P4 6.0, S2P6 319, S3P1 1142, S3P2 934, S3P3 16.1, S3P4 6.4, S3P5 22.5, ACS2P1-biotin 0.1 μg, − inhibition, + enhancement
# T6 construct: made in house
# T6 sequence (P12763 19-359): T1 sequence (P12763 19-359)
# [8] = biological target: T7, MAL-biotin binding to fetuin (Bos taurus, UniProt P12763); assay: MAL-biotin binding to fetuin, binding inhibition assay; design: species or system Maackia amurensis; conditions: peptide mg/mL: S2PL 1.2, ACS2P1 1.0, S2(14-2.3) 1.0, S2P2 1.1, S2P3 0.51, S2P4 0.98, S2P6 0.85, S3P1 3.2, S3P2 3.1, S3P3 4.5, S3P4 3.3, S3P5 0.48, S3P9a 1.7, SPYGRC 4.4, S2(WGA) 1.0, WGA (62-73) 1.0; + enhancement, − inhibition
# T7 construct: purchased Sigma Chemical Company (fetuin); Boehringer Mannheim (MAL-biotin)
# T7 sequence (P12763 19-359): T1 sequence (P12763 19-359)
# Experimental: as §1, §2
# [9] = biological target: SPYGRC-biotin binding to fetuin (Bordetella pertussis, UniProt P04978); assay: Inhibition of SPYGRC-biotin binding to fetuin by simple saccharides; conditions: saccharide 8 mM in PBS, 0.5 μg SPYGRC-biotin, fetuin 3 μg/ml, + enhancement
# Experimental: Binding inhibition assays were done using sialic acid, sialyllactose, lactose, or N-acetyl-glucosamine at a concentration of 8 mM in PBS. […] The pH of free sialic acid was carefully monitored and adjusted to physiological pH values with dilute sodium hydroxide.
# [10] = biological target: T8, ACS2P1-biotin binding to fetuin (Bordetella pertussis, UniProt P04978, G45S); conditions: saccharide 8 mM; n=3
# T8 construct: 2; ACS2P1-b; 9-23; made in house; host or cells: chemical synthesis
# [11] = biological target: T9, ACS2P1-biotin binding to fetuin (Bordetella pertussis, UniProt P04978); conditions: saccharide 8 mM in PBS; 0.1 μg ACS2P1-biotin; fetuin 3 μg/ml; + enhancement, − inhibition
# T9 construct: 2; ACS2P1-b; 9-23; made in house; host or cells: chemical synthesis
Compound,Percent Change in Binding Activity Fetuin [1],Percent Changes in Binding Activity PT/asialo-fetuin [2],Percent Changes in Binding Activity WGA/fetuin [3],Percent Changes in Binding Activity SNA/fetuin [4],Percent Changes in Binding Activity PT/fetuin [5],Maximal Inhibitory Concentration for Greater than 50% Inhibition [6],Percent Change in Binding Activity Asialofetuin [7],Percent Changes in Binding Activity MAL/fetuin [8],Percent Changes in Binding Activity SPYGRC-biotin (n = 3) [9],Percent Changes in Binding Activity ACS2P1-biotin (n = 3) [11],other results
CC[C@H](C)[C@H](NC(=O)CNC(=O)[C@@H]1CCCN1C(=O)[C@@H](NC(=O)[C@@H](N)CO)[C@@H](C)O)C(=O)N[C@H](C(=O)N[C@H](C(=O)N1CCC[C@H]1C(=O)N1CCC[C@H]1C(=O)N[C@@H](CCC(N)=O)C(=O)N[C@@H](CCC(=O)O)C(=O)N[C@@H](CCC(N)=O)C(=O)N[C@H](C(=O)N[C@H](C(=O)N[C@@H](CCC(N)=O)C(=O)N[C@@H](Cc1c[nH]cn1)C(=O)NCC(=O)N[C@@H](CO)C(=O)N1CCC[C@H]1C(=O)N[C@@H](Cc1ccc(O)cc1)C(=O)NCC(=O)N[C@@H](CCCNC(=N)N)C(=O)N[C@@H](CS)C(=O)O)[C@@H](C)O)[C@@H](C)CC)[C@@H](C)CC)C(C)C [Peptide S2P2],−50%,+33(1) Percent,−15 ± 2%,−1 ± 1%,+58 ± 4%,NI (Not inhibitory at a peptide concentration of 300 ng/ml.),+6 ± 1%,+14 ± 2%,–,–,"pIC50 [1]: 4.37; decrease in affinity relative to ACS2P1 ([1]; from IC50 values): 10 fold; effect on PT-biotin binding to fetuin, in words [5]: enhancement of binding of PT to fetuin; enhancement of PT-biotin binding to fetuin relative to control experiments in the absence of peptide ([5]; initial peptide screening): ~2 fold; competition for the binding of ACS2P1-biotin to asialofetuin, in words [7]: unable to compete for the binding of ACS2P1-biotin to asialofetuin"
CC(=O)N[C@H]1[C@H]([C@H](O)[C@H](O)CO)OC(O)(C(=O)O)C[C@@H]1O (some centres unmarked) [Sialic acid],–,–,–,–,–,–,–,–,+9 ± 8%,–,–
CC(=O)N[C@H]1C(O)O[C@H](CO)[C@@H](O)[C@@H]1O (some centres unmarked) [N-Acetylglucosamine],–,–,–,–,–,–,–,–,+6 ± 5%,−10 ± 2%,inhibition of the binding of biotinylated peptide (ACS2P1-biotin) to fetuin [10]: 10±2%
PKALFTQQGGAYGRC [Peptide S3P1],+245 ± 28%,+45 ± 16%,−9 ± 4%,−2 ± 1%,+54 ± 25%,NI (Not inhibitory at a peptide concentration of 300 ng/ml.),+4 ± 0%,+4 ± 6%,–,–,"inhibition of ACS2P1-biotin binding to fetuin, in words [1]: inability"
VAPGIVIPPKALFTQQGGAYGRC [Peptide S3P2],+88 ± 72%,+82 ± 11%,+9 ± 4%,+3 ± 3%,+77 ± 59%,NI (Not inhibitory at a peptide concentration of 300 ng/ml.),+12 ± 16%,+12 ± 16%,–,–,"inhibition of ACS2P1-biotin binding to fetuin, in words [1]: inability"
OC[C@H]1O[C@@](CO)(O[C@H]2O[C@H](CO)[C@@H](O)[C@H](O)[C@H]2O)[C@@H](O)[C@@H]1O [Sucrose],–,–,–,–,–,–,–,–,–,0 ± 3%,–
Sialyllactose,–,–,–,–,–,–,–,–,−24 ± 6%,−46 ± 3%,–
OC[C@H]1O[C@@H](O[C@H]2[C@H](O)[C@@H](O)C(O)O[C@@H]2CO)[C@H](O)[C@@H](O)[C@H]1O (some centres unmarked) [Lactose],–,–,–,–,–,–,–,–,+20 ± 11%,+74 ± 7%,inhibition of the binding of biotinylated peptide (ACS2P1-biotin) to fetuin [10]: failed to reduce the binding of ACS2P1-biotin
